# According to patent publication EP4582087A1, “PHARMACEUTICAL COMPOSITION FOR TREATING LYMPHOMA” (SymBio Pharmaceuticals Limited, priority 2022, dated 2024):
# What was measured:
# calreticulin = experiment: Immunogenic cell death: calreticulin staining by flow cytometry; format: cell-based; conditions: NK-S1 and KAI-3; BCV 0.1 ug/mL or 1 ug/mL for 72 hours; Fig. 6
# Method: (§1) NK-S1 and KAI-3 cell lines were treated with BCV (0.1 ug/mL or 1 ug/mL) or DMSO alone for 72 hours. For calreticulin staining, cells were incubated with a calreticulin antibody (1:100, room temperature, 30 minutes) (#ab92516, Abcam Limited.) and washed prior to analysis. Then, the cells were resuspended in PBS and analyzed using a cell analyzer (BD LSR Fortessa, BD Biosciences, San Jose, CA, USA). Data were analyzed using FlowJo version 10.8.0 (BD Biosciences, San Jose, California). The extracellular level of HMGB1 in the case of BCV treatment was measured using Lumit HMGB1 immunoassay (Promega Corporation, Madison, Wisconsin, USA).
# [1] = tested on: MYC-positive lymphoma cells (Raji, Daudi, VAL, BJAB, DB); experiment: Cell viability (CellTiter-Glo 2.0), MYC-positive B-cell lymphoma cell lines; format: cell-based; conditions: 96 hours, Fig. 8
# Method: Different B-cell lymphoma cell lines were individually treated with each concentration of BCV for 96 hours. Cell viability was quantified using Promega CellTiter-Glo (registered trademark) 2.0 Cell Viability Assay (Promega Corporation, Madison, Wisconsin, USA) according to the manufacturer's protocol. Information on the presence or absence of EBV and the molecular information were obtained by referring to a public database. The cell lines shown in Fig. 8 have been reported to be classified into groups as follows: Raji and Daudi as Burkitt's lymphoma (BL) cell lines; VAL and DB as diffuse large B-cell lymphoma (DLBCL) cell lines; and BJAB as a BL cell line or a DLBCL cell line. All of these are B lymphomas in which MYC is either translocated or amplified. Raji, Daudi, and VAL are EBV-positive cell lines, while BJAB and DB are EBV-negative cell lines. VAL is triple-hit lymphoma and DB is double-hit lymphoma.
# STING pathway = experiment: Whole transcriptome sequencing / GSEA / quantitative PCR, STING pathway genes; format: cell-based; conditions: NK-S1 and KAI-3; BCV 0.1 µg/mL and 1 µg/mL; Figs. 5B and 5C
# Method: (§2) BCV-treated NK-S1 and KAI-3 cell lines were subjected to sequencing of the entire transcription product. Gene set enrichment analysis (GSEA) was performed using the Molecular Signatures Database (MSigDB) Hallmark gene set. […] Quantitative PCR was performed using Maxima SYBR Green/ROX qPCR Master Mix (Thermo Scientific, USA). The ΔCt value of a gene's mRNA expression was calculated as the difference between the Ct value of the gene and that of an internal control, GAPDH. The ΔΔCt was calculated by subtracting the ΔCt value of the treatment group from the ΔCt value of an untreated control group. The fold change in expression was calculated using the formula 2^ΔΔCt.
# NK-S1 cell line = experiment: Combined treatment cell viability (CellTiter-Glo 2.0), Chou-Talalay combination index; format: cell-based; conditions: for type of combined effect based on the combination index value: CI less than 1 indicates synergism; for effect of combined treatment compared to each drug alone: Fig. 7
# Method: NK-S1 cell line was treated with a selected dose of etoposide, gemcitabine, or gamma irradiation, with or without BCV (0.1 µg/mL). Cell viability was quantified using Promega CellTiter-Glo (registered trademark) 2.0 Cell Viability Assay (Promega Corporation, Madison, Wisconsin, USA) according to the manufacturer's protocol. A combination index (CI) was calculated using Chou-Talalay median-effect analysis to determine if the effect was synergism, an additive effect, or antagonism. Specifically, a CI value less than 1 indicates synergism, and a CI value more than 1 indicates antagonism. A CI value close to 1 (i.e., between 0.9 and 1.1) was considered indicative of an additive effect.
# [2] = tested on: EBV-positive NK/T lymphoma; experiment: In vivo drug treatment of mice inoculated with NK-S1 cells; parameters: species or system NSG mice; conditions: 40 mg/kg intraperitoneally twice weekly
# Method: In in vivo drug treatment with BCV, 6-week-old female NSG mice were inoculated with 0.5 × 10^6 cells (NK-S1), and BCV or a control solvent was administered intraperitoneally at a dosage of 40 mg/kg twice weekly. Tumor measurements were recorded twice weekly until the tumor size in the control group reached approximately 2000 mm^3. Mice were euthanized according to the IACUC guideline. The tumor sizes of the experimental group and the control group (n = 8 per group) were averaged at each time point (Days 1, 5, 8, 12, and 15) and compared statistically. Throughout the experiment, signs of toxicity including diarrhea and weight loss were monitored.
# HMGB1 = experiment: Immunogenic cell death: extracellular HMGB1 (Lumit HMGB1 immunoassay); format: cell-based; conditions: NK-S1 and KAI-3; BCV treatment; Fig. 6
# Method: as §1
# [3] = tested on: eleven NK/T lymphoma cell lines (KAI-3, NK-S1, NK-92, KHYG-1, NK-YS, MEC-04, SNK-1, SNK-6, YT, HANK-1, or SNT-8); experiment: Cell viability (CellTiter-Glo 2.0), eleven NK/T lymphoma cell lines; format: cell-based; conditions: Fig. 9
# Method: The effect of BCV on cell viability was examined in eleven NK/T lymphoma cell lines (KAI-3, NK-S1, NK-92, KHYG-1, NK-YS, MEC-04, SNK-1, SNK-6, YT, HANK-1, or SNT-8). Cell viability was quantified using Promega CellTiter-Glo (registered trademark) 2.0 Cell Viability Assay (Promega Corporation, Madison, Wisconsin, USA) according to the manufacturer's protocol. In brief, cells were plated in a 96-well plate at a concentration of 2 × 10^3 cells per 100 µL of culture medium, and a drug was added at each concentration. After each time point, Promega CellTiter-Glo (registered trademark) 2.0 Cell Viability Assay reagent was added to the wells and incubated at room temperature for 10 minutes. Subsequently, […] was measured using a Tecan M200 Infinite 96-well plate reader and iControl software 1.6 (Tecan, Männedorf, Switzerland). Cell viability was calculated as a percentage of the control absorbance. A dose-response curve was generated by plotting the percentage of viable cells against the drug concentration to analyze the growth-inhibitory effect. The IC50 values were estimated using GraphPad Prism version 8.0.2 (GraphPad Software). All reactions were performed in triplicate (n = 3).
# EBNA1 = experiment: Western blot of EBNA1 expression in lymphoma cells; format: cell-based; conditions: NK-S1 and KAI-3; 0.1 and 1 µg/mL BCV for 72 hours; Fig. 4
# Method: (§3) NK-S1 and KAI-3 cell lines were treated with 0.1 and 1 µg/mL BCV for 72 hours. Subsequently, whole-cell lysates were separated by SDS-PAGE using 4 to 15% Mini-PROTEAN™ TGX Stain-Free™ Protein Gel (Bio-Rad Laboratories, Inc., Hercules, CA, USA) and then transferred to a 0.2 µm PVDF membrane (Bio-Rad Laboratories, Inc., Hercules, California, USA). The membrane was blocked and then gently shaken overnight at 4°C in a solution containing 5% skimmed milk powder (Bio-Rad Laboratories, Inc., Hercules, CA, USA) or 5% bovine serum albumin (Sigma-Aldrich, Darmstadt, Germany), TBST solution (50 mM Tris/HCl, pH 7.4, 150 mM NaCl, 0.1% Tween-20), and primary antibodies (anti-EBNA1 antibody (Santa Cruz Biotechnology, Inc.) and anti-LMP1 antibody (Dako)). Exposure to an appropriate HRP-conjugated anti-mouse antibody (Cytiva, Washington D.C., USA) was performed for 1 hour. Finally, chemiluminescent detection was performed using SuperSignal Substrate Western Blotting Kit (Thermo Fisher Scientific Inc., Massachusetts, USA). Imaging was performed using ChemiDoc™ XRS+ (a system with Image Lab™ software, Bio-Rad Laboratories, Inc., Hercules, California, USA).
# [4] = tested on: NK/T lymphoma cells (KAI-3, NK-S1, KHYG-1); experiment: Cell viability (CellTiter-Glo 2.0), NK/T lymphoma cell proliferation; format: cell-based; conditions: Fig. 1
# Method: (§4) Cell viability was determined using Promega CellTiter-Glo (registered trademark) 2.0 Cell Viability Assay (Promega Corporation, Madison, Wisconsin, USA) according to the manufacturer's protocol. Specifically, lymphoma cells were plated in a 96-well plate at a concentration of 2 × 10^3 cells per 100 µL of culture medium, and a drug (BCV) was added to each well at each concentration. At each time point, Promega CellTiter-Glo (registered trademark) 2.0 Cell Viability Assay reagent was added to the wells and incubated at room temperature for 10 minutes. Subsequently, […] was measured using a Tecan M200 Infinite 96-well plate reader and IControl software 1.6 (Tecan, Männedorf, Switzerland). Cell viability was evaluated as a percentage of a control absorbance. A dose-response curve was generated by plotting the percentage of viable cells against the drug concentration to analyze the growth-inhibitory effect. The IC50 values were estimated using GraphPad Prism version 8.0.2 (GraphPad Software). All reactions were performed in triplicate (n = 3). Furthermore, EBV positivity or EBV negativity of the cells was detected based on the presence or absence of an EBV-derived transcript (e.g., EBER, EBNA1, and the like).
# Myc = experiment: Whole transcriptome sequencing / GSEA / quantitative PCR, Myc expression; format: cell-based; conditions: NK-S1 and KAI-3
# Method: as §2
# LMP1 = experiment: Western blot of LMP1 expression in lymphoma cells; format: cell-based; conditions: NK-S1 and KAI-3; 0.1 and 1 µg/mL BCV for 72 hours; Fig. 4
# Method: as §3
# [5] = tested on: EBV-positive NK/T lymphoma cells (NK-S1); experiment: Cell viability (CellTiter-Glo 2.0), comparison with antiviral agents; format: cell-based; conditions: compared to acyclovir, ganciclovir, adefovir, foscarnet, and penciclovir, Fig. 2
# Method: as §4
# The experimental procedure was the same as in Example 1, except that BCV, acyclovir, ganciclovir, adefovir, foscarnet, and penciclovir were used as the drugs.
# [6] = BCV 0.1 µg/mL combined with etoposide
# [7] = BCV 0.1 µg/mL combined with gemcitabine
compound,measurement,setting,value
"CCCCCCCCCCCCCCCCOCCCOP(=O)(O)CO[C@H](CO)Cn1ccc(N)nc1=O [BCV, [(2S)-1-(4-amino-2-oxopyrimidin-1-yl)-3-hydroxypropan-2-yl]oxymethyl-(3-hexadecoxypropoxy)phosphinic acid]",number of calreticulin-positive cells,calreticulin,clearly increased
same,growth-suppressive effect on EBV-positive cells and EBV-negative cells,"[1]; EBV-positive Raji, EBV-negative BJAB",strong growth-suppressive effect on both EBV-positive cells and EBV-negative cells
same,cell growth-suppressive action on MYC-positive lymphoma cells,"[1]; Raji, BJAB",distinct cell growth-suppressive action
same,expression of a gene group in the STING pathway,STING pathway,increased
same,type of combined effect based on the combination index value,NK-S1 cell line; [6],synergistic effect
same,effect of combined treatment compared to each drug alone,NK-S1 cell line; [6],significant enhancement of the effect
same,type of combined effect based on the combination index value,NK-S1 cell line; [7],synergistic effect
same,effect of combined treatment compared to each drug alone,NK-S1 cell line; [7],significant enhancement of the effect
same,enlargement of EBV-positive NK/T lymphoma (tumor size),"[2]; NK-S1 in NSG mice, Days 1-15, Figs. 3A to 3D",significantly suppressed the enlargement of EBV-positive NK/T lymphoma
same,animal's health status,[2]; NSG mice,good
same,signs of toxicity: diarrhea,[2]; NSG mice,no diarrhea observed
same,release of HMGB1,HMGB1,clearly increased
same,IC50 values,"[3]; four cell lines (KAI-3, NK-S1, NK-92, KHYG-1) versus the other seven cell lines",lower IC50 values compared to other cell lines
same,sensitivity to BCV,"[3]; four cell lines (KAI-3, NK-S1, NK-92, KHYG-1)",high sensitivity to BCV
same,expression level of EBNA1,EBNA1,reduced the expression level
same,IC50 value of cell growth-suppressive action,[4]; EBV-positive (KAI-3 and NK-S1) versus EBV-negative (KHYG-1) NK/T lymphoma cells,significantly lower for EBV-positive NK/T lymphoma cells (KAI-3 and NK-S1) compared to EBV-negative NK/T lymphoma cells (KHYG-1)
same,proliferation of NK/T lymphoma cells,"[4]; KAI-3, NK-S1, KHYG-1",suppressed the proliferation of NK/T lymphoma cells
same,Myc expression,"Myc; BCV 0.1 µg/mL and 1 µg/mL, Fig. 5A",significantly reduced Myc expression
same,expression of a gene group controlled by MYC,"Myc; BCV-treated, Fig. 5",significantly reduced the expression of a gene group controlled by MYC
same,expression level of LMP1,LMP1,reduced the expression level
same,cell growth-suppressive effect,[5],significantly better cell growth-suppressive effect
